This note sets out measurements from US12630498B2 (Genzyme Corporation, priority 2019, dated 2026).

Assay [1] deals with T1, human Cystic Fibrosis Transmembrane Conductance Regulator (CFTR) harboring the ΔF508 mutation (Homo sapiens, UniProt P13569, DEL508-508).
T1 construct: expressed in transfected cells; host or cells: H441 carcinoma line (G418-selected)
Briefly: H441 cell ΔF508-CFTR-HRP cell surface assay (Emax and EC50). Format: cell-based. The conditions noted are these: for Emax: NCI-H441, NA = Not active. In short, it runs like this: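 H441 and 41o- bronchial epithelial cells expressing ΔF508-CFTR with an extracellular-loop-4 HRP tag were treated with a 15-point compound series (24.5–0.001 μM) for two nights, H441 at 27° C, 41o- at 37° C with 0.0005 mg/ml doxycycline. Surface HRP luminescence read; % of maximum VX809 signal and EC50 derived.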

In assay [2] the target is T2, CFTR-mediated transepithelial chloride transport in primary human bronchial epithelial cells from a ΔF508 homozygous CF donor (Homo sapiens, UniProt P13569, DEL508-508).
T2 construct: Primary human bronchial epithelial cells from a ΔF508 homozygous CF donor; host or cells: primary CF-HBE cells, ΔF508 homozygous donor
Briefly: TECC24 recording of CFTR-mediated transepithelial chloride transport in CF-HBE cells (AUC fold over DMSO). Format: cell-based. The conditions noted are these: test agent 10 μM, 48 hours incubation, AUC of forskolin-stimulated IEQ relative to DMSO. In short, it runs like this: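 Primary ΔF508/ΔF508 CF-HBE cells on inserts exposed to test agent in IL-13-containing medium for 48 h at 36.5 °C. Current-clamp VT/TEER recording in pH 7.4 HEPES saline with benzamil 10 μM, forskolin 10 μM, then CFTRinh-172 20 μM. AUC of equivalent Cl⁻ current between forskolin and inhibitor, expressed as ratio over vehicle.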

The structures appear in SMILES notation.

T2 sequence (P13569 with tags, fused parts or gaps DEL508-508): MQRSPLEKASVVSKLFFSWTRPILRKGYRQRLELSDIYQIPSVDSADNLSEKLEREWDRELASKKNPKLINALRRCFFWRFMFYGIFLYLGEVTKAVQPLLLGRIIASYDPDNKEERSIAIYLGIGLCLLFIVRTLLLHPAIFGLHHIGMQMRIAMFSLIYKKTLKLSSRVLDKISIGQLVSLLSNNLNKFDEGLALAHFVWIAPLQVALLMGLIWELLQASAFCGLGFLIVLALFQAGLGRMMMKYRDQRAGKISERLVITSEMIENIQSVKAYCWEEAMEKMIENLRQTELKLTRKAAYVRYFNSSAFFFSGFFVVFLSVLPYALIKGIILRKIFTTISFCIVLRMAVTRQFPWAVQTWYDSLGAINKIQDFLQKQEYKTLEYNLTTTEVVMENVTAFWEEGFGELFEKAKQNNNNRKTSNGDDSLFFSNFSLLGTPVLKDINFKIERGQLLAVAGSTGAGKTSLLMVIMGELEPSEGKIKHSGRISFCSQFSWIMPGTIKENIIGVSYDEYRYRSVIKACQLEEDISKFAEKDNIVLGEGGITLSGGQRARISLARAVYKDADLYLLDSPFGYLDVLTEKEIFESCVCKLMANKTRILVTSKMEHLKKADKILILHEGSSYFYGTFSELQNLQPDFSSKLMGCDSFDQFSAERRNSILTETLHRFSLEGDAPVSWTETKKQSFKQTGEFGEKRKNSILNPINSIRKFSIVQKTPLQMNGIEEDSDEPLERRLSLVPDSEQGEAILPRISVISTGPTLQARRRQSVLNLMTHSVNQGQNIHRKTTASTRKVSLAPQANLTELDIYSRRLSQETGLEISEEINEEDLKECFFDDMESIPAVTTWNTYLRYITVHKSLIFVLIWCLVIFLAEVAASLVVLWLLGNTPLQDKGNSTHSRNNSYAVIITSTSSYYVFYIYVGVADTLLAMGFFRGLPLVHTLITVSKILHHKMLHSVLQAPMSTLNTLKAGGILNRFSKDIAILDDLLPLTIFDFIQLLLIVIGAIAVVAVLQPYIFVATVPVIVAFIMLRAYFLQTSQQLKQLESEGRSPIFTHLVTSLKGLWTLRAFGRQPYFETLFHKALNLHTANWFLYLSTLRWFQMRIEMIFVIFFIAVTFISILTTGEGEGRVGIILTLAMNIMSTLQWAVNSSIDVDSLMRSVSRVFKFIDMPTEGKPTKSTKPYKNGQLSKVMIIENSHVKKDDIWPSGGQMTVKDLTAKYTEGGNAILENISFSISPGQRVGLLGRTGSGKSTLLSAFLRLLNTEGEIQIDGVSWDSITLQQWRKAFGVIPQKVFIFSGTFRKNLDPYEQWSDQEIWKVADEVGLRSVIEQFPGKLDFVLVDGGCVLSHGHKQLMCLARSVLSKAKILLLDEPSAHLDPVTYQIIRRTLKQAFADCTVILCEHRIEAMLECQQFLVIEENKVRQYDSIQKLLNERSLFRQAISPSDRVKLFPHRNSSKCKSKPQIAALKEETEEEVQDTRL
T1 sequence (P13569 with tags, fused parts or gaps DEL508-508): as above

A word on the EC50: it is the concentration needed to bring the measured effect to its halfway point. As a reminder, the Emax is the size of the effect at its maximum, as opposed to the concentration needed. As for `CC(C)(C)[C@H](NC(=O)c1ccc2ccc(Br)cc2c1OCc1ccc(OC(F)(F)F)cc1)C(=O)O` [Example 247, (2S)-2-[[7-bromo-1-[[4-(trifluoromethoxy)phenyl]methoxy]naphthalene-2-carbonyl]amino]-3,3-dimethyl-butanoic Acid], in assay [1], it took 100 nM to reach a half-maximal effect (EC50) and the Emax is 224%. Besides, the “TECC24 AUC fold over DMSO @10 μM” value in assay [2] is given as “A (“A” refers to AUC @10 uM >6)”.

In assay [1], `CC(C)(C)[C@H](NC(=O)c1ccc2ccc(C#N)cc2c1OCc1ccc(C(F)(F)F)cc1)C(=O)O` [Example 248, (2S)-2-[[7-cyano-1-[[4-(trifluoromethyl)phenyl]methoxy]naphthalene-2-carbonyl]amino]-3,3-dimethyl-butanoic Acid] showed an EC50 of 1500 nM and an Emax of 206%. The “TECC24 AUC fold over DMSO @10 μM” value in assay [2] is on record as “A (“A” refers to AUC @10 uM >6)”.

As for `Cc1ccc2ccc(C(=O)N[C@H](C(=O)O)C(C)(C)C)c(OCc3ccc(OC(F)(F)F)cc3)c2c1` [Example 249, (2S)-3,3-dimethyl-2-[[7-methyl-1-[[4-(trifluoromethoxy)phenyl]methoxy]naphthalene-2-carbonyl]amino]butanoic Acid], in assay [1], the midpoint of the response, the EC50, lay at 200 nM and the Emax was determined as 305%. Further, the “TECC24 AUC fold over DMSO @10 μM” value in assay [2] is listed as “A (“A” refers to AUC @10 uM >6)”.

On to `CCC(C)(C)[C@H](NC(=O)c1ccc2ccc(C(F)F)cc2c1OCc1ccc(OC(F)(F)F)cc1)C(=O)O` [Example 250, (2S)-2-[[7-(difluoromethyl)-1-[[4-(trifluoromethoxy)phenyl]methoxy]naphthalene-2-carbonyl]amino]-3,3-dimethyl-pentanoic Acid], for which, in assay [1], a half-maximal effect (EC50) was put at 100 nM and the Emax is 270%. The “TECC24 AUC fold over DMSO @10 μM” value in assay [2] was “A (“A” refers to AUC @10 uM >6)”.

As for `CCCC(C)(CC)[C@H](NC(=O)c1ccc2ccc(Cl)cc2c1OCc1ccc(OC(F)(F)F)cc1)C(=O)O` (stereo partly drawn) [Example 251, (2S)-2-[[7-chloro-1-[[4-(trifluoromethoxy)phenyl]methoxy]naphthalene-2-carbonyl]amino]-3-ethyl-3-methyl-hexanoic Acid], in assay [1], the EC50 turned out to be 100 nM and the Emax amounted to 267%. Besides, the “TECC24 AUC fold over DMSO @10 μM” value in assay [2] is on record as “A (“A” refers to AUC @10 uM >6)”.

In assay [1], `CC(C)(C)[C@H](NC(=O)c1ccc2ccc(-c3cscn3)cc2c1OCc1ccc(OC(F)(F)F)cc1)C(=O)O` [Example 252, (2S)-3,3-dimethyl-2-[[7-thiazol-4-yl-1-[[4-(trifluoromethoxy)phenyl]methoxy]naphthalene-2-carbonyl]amino]butanoic Acid] showed an EC50 of 600 nM and an Emax of 110%. Also, the “TECC24 AUC fold over DMSO @10 μM” value in assay [2] was “A (“A” refers to AUC @10 uM >6)”.

In the case of `CCC1([C@H](NC(=O)c2ccc3ccc(Cl)cc3c2OCc2ccc(OC(F)(F)F)cc2)C(=O)O)CCCC1` [Example 253, (2S)-2-[[7-chloro-1-[[4-(trifluoromethoxy)phenyl]methoxy]naphthalene-2-carbonyl]amino]-2-(1-ethylcyclopentyl)acetic Acid], in assay [1], the Emax is 239%. Further, the “TECC24 AUC fold over DMSO @10 μM” value in assay [2] is recorded as “A (“A” refers to AUC @10 uM >6)”.

In assay [1], `CC(C)(C)[C@H](NC(=O)c1ccc2ccc(C#N)cc2c1OCc1ccc(OC(F)(F)F)cc1)C(=O)O` [Example 254, (2S)-2-[[7-cyano-1-[[4-(trifluoromethoxy)phenyl]methoxy]naphthalene-2-carbonyl]amino]-3,3-dimethyl-butanoic Acid] had an EC50 of 700 nM and an Emax of 176%. The “TECC24 AUC fold over DMSO @10 μM” value in assay [2] was “A (“A” refers to AUC @10 uM >6)”.

In assay [1], `CCCC(C)(CC)[C@H](NC(=O)c1ccc2ccc(Cl)cc2c1OCc1ccc(C(F)(F)F)cc1)C(=O)O` (stereo partly drawn) [Example 255, (2S)-2-[[7-chloro-1-[[4-(trifluoromethyl)phenyl]methoxy]naphthalene-2-carbonyl]amino]-3-ethyl-3-methyl-hexanoic Acid] showed an EC50 of 100 nM and an Emax of 324%. For the same molecule, the “TECC24 AUC fold over DMSO @10 μM” value in assay [2] is on record as “A (“A” refers to AUC @10 uM >6)”.

In assay [1], `CC(C)(C)[C@H](NC(=O)c1ccc2ccc(Br)cc2c1OCc1ccc(C(F)(F)F)cc1)C(=O)O` [Example 256, (2S)-2-[[7-bromo-1-[[4-(trifluoromethyl)phenyl]methoxy]naphthalene-2-carbonyl]amino]-3,3-dimethyl-butanoic Acid] came in with an EC50 of 100 nM and an Emax of 296%. For the same molecule, the “TECC24 AUC fold over DMSO @10 μM” value in assay [2] was “A (“A” refers to AUC @10 uM >6)”.

`CCC(C)(C)[C@H](NC(=O)c1ccc2ccc(C)cc2c1OCCCC(C)(C)C)C(=O)O` [Example 257, (2S)-2-[[1-(4,4-dimethylpentoxy)-7-methyl-naphthalene-2-carbonyl]amino]-3,3-dimethyl-pentanoic Acid]: in assay [1], the EC50 came to 600 nM and the Emax turned out to be 369%. In addition, in assay [2], the “TECC24 AUC fold over DMSO @10 μM” value is “A (“A” refers to AUC @10 uM >6)”.

On to `CCC1([C@H](NC(=O)c2ccc3ccc(Cl)cc3c2OCc2ccc(C(F)(F)F)cc2)C(=O)O)CCCC1` [Example 258], for which, in assay [1], the Emax was 264%. Moreover, in assay [2], the “TECC24 AUC fold over DMSO @10 μM” value is reported as “A (“A” refers to AUC @10 uM >6)”.

`CC(C)(C)[C@@H](NC(=O)c1ccc2ccc(F)cc2c1OCc1ccc(OC(F)(F)F)cc1)C(=O)O` [Example 259, (2R)-2-[[7-fluoro-1-[[4-(trifluoromethoxy)phenyl]methoxy]naphthalene-2-carbonyl]amino]-3,3-dimethyl-butanoic Acid]: in assay [1], the midpoint of the response, the EC50, lay at 1700 nM and the Emax stood at 63.7%. For the same molecule, the “TECC24 AUC fold over DMSO @10 μM” value in assay [2] is “A (“A” refers to AUC @10 uM >6)”.

In assay [1], `CC(C)Oc1ccc2c(OCc3ccc(C(F)(F)F)cc3)c(C(=O)N[C@H](C(=O)O)C(C)(C)C)ccc2c1` [Example 260, (2S)-2-[[6-isopropoxy-1-[[4-(trifluoromethyl)phenyl]methoxy]naphthalene-2-carbonyl]amino]-3,3-dimethyl-butanoic Acid] yielded an EC50 of 1500 nM and an Emax of 70.2%. Besides, the “TECC24 AUC fold over DMSO @10 μM” value in assay [2] is given as “C (“C” refers to AUC @10 uM <4)”.

As for `CC(C)(C)[C@@H](NC(=O)c1ccc2ccc(F)cc2c1OCc1ccc(C(F)(F)F)cc1)C(=O)O` [Example 261, (2R)-2-[[7-fluoro-1-[[4-(trifluoromethyl)phenyl]methoxy]naphthalene-2-carbonyl]amino]-3,3-dimethyl-butanoic Acid], in assay [1], the EC50 was found to be 900 nM and the maximal effect (Emax) was found to be 68.4%. Besides, the “TECC24 AUC fold over DMSO @10 μM” value in assay [2] is reported as “A (“A” refers to AUC @10 uM >6)”.

With `CC(C)(C)[C@@H](NC(=O)c1ccc2ccc(Cl)cc2c1OCc1ccc(C(F)(F)F)cc1)C(=O)O` [Example 262, (2R)-2-[[7-chloro-1-[[4-(trifluoromethyl)phenyl]methoxy]naphthalene-2-carbonyl]amino]-3,3-dimethyl-butanoic Acid], in assay [1], the midpoint of the response, the EC50, lay at 1100 nM and the Emax amounted to 132%. The “TECC24 AUC fold over DMSO @10 μM” value in assay [2] is on record as “A (“A” refers to AUC @10 uM >6)”.

In assay [1], `Cc1cc(F)c2ccc(C(=O)N[C@H](C(=O)O)C(C)(C)C)c(OCc3ccc(C(F)(F)F)cc3)c2c1` [Example 263, (2S)-2-[[5-fluoro-7-methyl-1-[[4-(trifluoromethyl)phenyl]methoxy]naphthalene-2-carbonyl]amino]-3,3-dimethyl-butanoic Acid] registered an EC50 of 100 nM and an Emax of 250%. Further, the “TECC24 AUC fold over DMSO @10 μM” value in assay [2] is given as “A (“A” refers to AUC @10 uM >6)”.

In assay [1], `CC(C)(C)[C@@H](NC(=O)c1ccc2ccc(C(F)F)cc2c1OCc1ccc(OC(F)(F)F)cc1)C(=O)O` [Example 264, (2R)-2-[[7-(difluoromethyl)-1-[[4-(trifluoromethoxy)phenyl]methoxy]naphthalene-2-carbonyl]amino]-3,3-dimethyl-butanoic Acid] yielded an EC50 of 1800 nM and an Emax of 70.7%. For the same molecule, in assay [2], the “TECC24 AUC fold over DMSO @10 μM” value was “B (“B” refers to AUC @10 uM between 4-6)”.

Turning to `CC(C)(C)[C@@H](NC(=O)c1ccc2ccc(C(F)F)cc2c1OCc1ccc(C(F)(F)F)cc1)C(=O)O` [Example 265, (2R)-2-[[7-(difluoromethyl)-1-[[4-(trifluoromethyl)phenyl]methoxy]naphthalene-2-carbonyl]amino]-3,3-dimethyl-butanoic Acid], in assay [1], the EC50 is 600 nM and the Emax came out at 96.2%. Besides, the “TECC24 AUC fold over DMSO @10 μM” value in assay [2] was “C (“C” refers to AUC @10 uM <4)”.

In assay [1], `CCC(C)(C)[C@H](NC(=O)c1ccc2ccc(F)cc2c1OCc1ccc(C(F)(F)F)cc1)C(=O)O` [Example 274, (2S)-2-[[7-fluoro-1-[[4-(trifluoromethyl)phenyl]methoxy]naphthalene-2-carbonyl]amino]-3,3-dimethyl-pentanoic Acid] had an EC50 of 200 nM and an Emax of 195%. The “TECC24 AUC fold over DMSO @10 μM” value in assay [2] is listed as “A (“A” refers to AUC @10 uM >6)”.

Take `CCC(C)(C)C(NC(=O)c1ccc2ccc(C)cc2c1OCc1ccc(C(F)(F)F)cc1)C(=O)O` (stereo not shown) [Example 275, 3,3-Dimethyl-2-{[7-methyl-1-(4-trifluoromethyl-benzyloxy)-naphthalene-2-carbonyl]-amino}-pentanoic Acid]: in assay [1], the EC50 turned out to be 200 nM and the maximal effect (Emax) was determined as 322%. Further, the “TECC24 AUC fold over DMSO @10 μM” value in assay [2] is “A (“A” refers to AUC @10 uM >6)”.
